Molecular target: T1, PTK2 (FAK) (Homo sapiens, UniProt Q05397)
T1 construct: purchased Thermo Fisher Scientific (Life Technologies) SelectScreen
Assay: SelectScreen Z'LYTE
Assay type: biochemical
In short: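 Percent values come from Thermo SelectScreen profiling of NU5455, combining activity and binding assays. CSF1R was run in Z'LYTE format at Km app ATP, and CAMK1 in Adapta format with ATP listed at 10.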

T1 sequence (Q05397 whole entry): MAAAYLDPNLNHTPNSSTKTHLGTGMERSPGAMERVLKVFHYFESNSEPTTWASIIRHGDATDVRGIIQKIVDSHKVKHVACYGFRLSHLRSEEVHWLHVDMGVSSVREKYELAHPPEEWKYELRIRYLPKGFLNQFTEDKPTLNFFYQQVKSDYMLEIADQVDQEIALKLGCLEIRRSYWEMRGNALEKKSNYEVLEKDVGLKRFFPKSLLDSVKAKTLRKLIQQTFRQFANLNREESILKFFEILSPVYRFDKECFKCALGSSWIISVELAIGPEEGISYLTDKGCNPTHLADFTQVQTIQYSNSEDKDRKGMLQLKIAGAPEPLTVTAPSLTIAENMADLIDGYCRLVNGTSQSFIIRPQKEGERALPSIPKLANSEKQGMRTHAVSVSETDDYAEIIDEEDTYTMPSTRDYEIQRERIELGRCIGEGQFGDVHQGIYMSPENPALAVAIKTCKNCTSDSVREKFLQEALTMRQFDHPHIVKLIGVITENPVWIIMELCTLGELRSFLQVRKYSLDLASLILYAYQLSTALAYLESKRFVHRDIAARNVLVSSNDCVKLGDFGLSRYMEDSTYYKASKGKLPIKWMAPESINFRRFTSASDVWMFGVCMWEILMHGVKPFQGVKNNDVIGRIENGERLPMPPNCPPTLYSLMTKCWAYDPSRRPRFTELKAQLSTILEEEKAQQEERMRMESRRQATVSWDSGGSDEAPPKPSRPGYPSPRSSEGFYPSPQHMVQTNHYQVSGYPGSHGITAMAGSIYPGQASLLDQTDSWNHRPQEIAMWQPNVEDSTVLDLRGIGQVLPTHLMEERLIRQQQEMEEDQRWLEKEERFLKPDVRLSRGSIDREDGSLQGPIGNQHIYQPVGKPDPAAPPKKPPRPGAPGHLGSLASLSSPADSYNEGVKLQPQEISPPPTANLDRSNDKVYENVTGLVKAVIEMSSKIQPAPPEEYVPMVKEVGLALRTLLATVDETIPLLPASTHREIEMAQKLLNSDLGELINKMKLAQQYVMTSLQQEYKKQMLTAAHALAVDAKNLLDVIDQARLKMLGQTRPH

## CN(C(=O)CN1CCOCC1)c1ccc2sc3c(-c4cccc5c(=O)cc(N6CC7CCC(C6)O7)oc45)cccc3c2c1 [NU5455]
  inhibition at 1 µM: 5.1%

Reference: paper PMC6934184, “Selective DNA-PKcs inhibition extends the therapeutic index of localized radiotherapy and chemotherapy” (The Journal of Clinical Investigation, 2019)
